# Laboratory results taken from ChEMBL document CHEMBL2046383, “Hyrtioreticulins A-E, indole alkaloids inhibiting the ubiquitin-activating enzyme, from the marine sponge Hyrtios reticulatus” (Bioorg Med Chem, 2012).
# Calls of active or inactive are those of the source. The rule behind the calls is not given here.
# How the values were obtained:
# [1] = target: T1, Ubiquitin-like modifier-activating enzyme 1 (Homo sapiens, UniProt P22314); test: Inhibition of recombinant fluorescein-tagged E1 assessed as inhibition of ubiquitin-E1 adduct formation incubated for 15 mins prior to ATP addition measured after 5 mins by SDS PAGE analysis
# T1 sequence (P22314 whole entry): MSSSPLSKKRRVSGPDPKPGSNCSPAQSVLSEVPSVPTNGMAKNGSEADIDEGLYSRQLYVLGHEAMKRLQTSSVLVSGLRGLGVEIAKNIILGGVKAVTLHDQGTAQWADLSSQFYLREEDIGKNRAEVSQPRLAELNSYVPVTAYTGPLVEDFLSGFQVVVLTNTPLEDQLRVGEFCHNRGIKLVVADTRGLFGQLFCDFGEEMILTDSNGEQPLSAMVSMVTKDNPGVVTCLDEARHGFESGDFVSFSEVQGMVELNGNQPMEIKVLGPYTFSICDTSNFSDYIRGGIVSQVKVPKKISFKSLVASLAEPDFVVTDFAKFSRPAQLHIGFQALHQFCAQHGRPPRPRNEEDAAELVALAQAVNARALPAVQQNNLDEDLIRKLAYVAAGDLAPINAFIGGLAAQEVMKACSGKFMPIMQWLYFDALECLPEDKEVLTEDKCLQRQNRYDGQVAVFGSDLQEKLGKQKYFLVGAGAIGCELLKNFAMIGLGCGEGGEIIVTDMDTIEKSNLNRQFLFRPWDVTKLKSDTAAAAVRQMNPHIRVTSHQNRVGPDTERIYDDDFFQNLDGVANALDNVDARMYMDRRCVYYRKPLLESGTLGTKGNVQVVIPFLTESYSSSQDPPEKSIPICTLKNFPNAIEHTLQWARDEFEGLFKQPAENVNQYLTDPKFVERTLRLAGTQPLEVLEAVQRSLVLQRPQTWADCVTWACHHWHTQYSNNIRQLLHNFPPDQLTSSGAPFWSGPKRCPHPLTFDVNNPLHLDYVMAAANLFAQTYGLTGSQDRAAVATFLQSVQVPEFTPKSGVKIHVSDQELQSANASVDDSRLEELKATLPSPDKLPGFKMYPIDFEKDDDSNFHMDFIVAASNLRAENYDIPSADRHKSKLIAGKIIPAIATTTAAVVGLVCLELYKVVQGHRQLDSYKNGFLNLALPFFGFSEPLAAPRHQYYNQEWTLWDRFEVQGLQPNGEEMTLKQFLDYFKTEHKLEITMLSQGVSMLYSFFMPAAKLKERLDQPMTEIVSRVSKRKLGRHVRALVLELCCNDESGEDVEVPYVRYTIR
# [2] = target: T2, Ubiquitin-like modifier-activating enzyme 1 (Homo sapiens) (UniProt P22314); test: Inhibition of GST-tagged ubiquitin binding to FLAG-tagged E1 at 50 uM after 20 mins by immunoprecipitation analysis
# T2 sequence (whole entry): T1 sequence (P22314 whole entry)
# HeLa = test: Cytotoxicity against human HeLa cells at 50 ug/mL; format: functional, cell-based
# [3] = target: T1, Ubiquitin-like modifier-activating enzyme 1; test: (§1) Inhibition of FLAG-tagged ubiquitin-activating enzyme E1 assessed as inhibition of GST-ubiquitin/FLAG-E1 intermediate formation by Western blot analysis
# [4] = target: T2, Ubiquitin-like modifier-activating enzyme 1 (Homo sapiens); test: as §1
# [5] = target: T1, Ubiquitin-like modifier-activating enzyme 1; test: Inhibition of ubiquitin-activating enzyme E1
# [6] = target: T2, Ubiquitin-like modifier-activating enzyme 1 (Homo sapiens); test: Inhibition of FLAG-tagged ubiquitin-activating enzyme E1 assessed as inhibition of GST-ubiquitin/FLAG-E1 intermediate formation at 100 uM by Western blot analysis
inhibition [2],Compound,Activity (HeLa),also measured
inactive,O=C(O)[C@@H]1Cc2c([nH]c3ccc(O)cc23)[C@@H](Cc2c[nH]cn2)N1,inactive,inhibition [4]: Dose-dependent effect
inactive,O=C(O)[C@@H]1Cc2c([nH]c3ccc(O)cc23)[C@H](Cc2c[nH]cn2)N1 [HYRTIORETICULIN B],inactive,IC50 [3]: 35 µM; inhibition [4]: Dose-dependent effect

# The next lines start with the molecule.
Compound,inhibition [2],Activity (HeLa),also measured
CCCCCCCC(=O)SCC/C=C/[C@@H]1CC(=O)NCc2nc(cs2)C2=N[C@@](C)(CS2)C(=O)N[C@@H](C(C)C)C(=O)O1 [LARGAZOLE],,,IC50 [1]: 29 µM
C[C@@H](CC(=O)NC(=O)c1coc(/C=C/CCCCCCCCC(=O)O)cc1=O)C(=O)O,Active,,
C[C@H]1N[C@H](C(=O)O)Cc2c1[nH]c1ccc(O)cc21,,inactive,
O=C(O)[C@@H]1Cc2c([nH]c3ccc(O)cc23)[C@@H](Cc2cnc[nH]2)N1 [HYRTIORETICULIN A],,,IC50 [3]: 2.4 µM
CC(C)(O)/C=C/[C@@]12[C@H]3[C@@H](O)[C@@H]4O[C@@H]4[C@]1(O)OC(C)(C)[C@H]2C=C1C(=O)[C@H]2O[C@H]2[C@H](O)[C@H]13 [PANEPOPHENANTHRINE],,,IC50 [5]: 40 µM
C[C@H]1N[C@H](C(=O)O)Cc2c[nH]c3ccc(O)c1c23,,inactive,
C[C@H]1N[C@@H](C(=O)O)Cc2c1[nH]c1ccc(O)cc21,,inactive,inhibition [6]: Active
C[C@@H]1N[C@H](C(=O)O)Cc2c[nH]c3ccc(O)c1c23,,inactive,
